In US7220756B2, “N-sulfonylheterocyclopyrrolyl-alkylamine compounds as 5-hydroxytryptamine-6 ligands” (Wyeth, priority 2003, dated 2007) one finds Ki data, which are given here for 35 compounds.

T1 sequence (P50406 whole entry): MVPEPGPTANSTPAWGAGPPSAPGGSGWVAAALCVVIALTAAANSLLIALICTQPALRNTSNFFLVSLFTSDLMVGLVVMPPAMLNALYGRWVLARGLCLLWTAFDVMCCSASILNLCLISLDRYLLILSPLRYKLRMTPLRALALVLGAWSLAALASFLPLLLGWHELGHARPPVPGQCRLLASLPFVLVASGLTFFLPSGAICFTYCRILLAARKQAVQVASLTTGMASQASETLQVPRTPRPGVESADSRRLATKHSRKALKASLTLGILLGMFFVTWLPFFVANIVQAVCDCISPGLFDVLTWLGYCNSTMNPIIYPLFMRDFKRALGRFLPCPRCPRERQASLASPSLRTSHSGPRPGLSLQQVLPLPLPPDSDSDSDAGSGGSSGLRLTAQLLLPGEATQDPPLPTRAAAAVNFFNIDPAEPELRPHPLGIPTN

The first assay has as its target T1, human cloned 5-HT6 receptors (Homo sapiens, UniProt P50406).
T1 construct: expressed in transfected cells; host or cells: HeLa cells
Put plainly: 5-HT6 binding affinity, [3H]-LSD displacement.
Conditions: not given
The method, then: The affinity of test compounds for the serotonin 5-HT6 receptor is evaluated in the following manner. Cultured Hela cells expressing human cloned 5-HT6 receptors are harvested and centrifuged at low speed (1,000×g) for 10.0 min to remove the culture media. The harvested cells are suspended in half volume of fresh physiological phosphate buffered saline solution and recentrifuged at the same speed. This operation is repeated. The collected cells are then homogenized in ten volumes of 50 mM Tris.HCl (pH 7.4) and 0.5 mM EDTA. The homogenate is centrifuged at 40,000×g for 30.0 min and the precipitate is collected. The obtained pellet is resuspended in 10 volumes of Tris.HCl buffer and recentrifuged at the same speed. The final pellet is suspended in a small volume of Tris.HCl buffer and the tissue protein content is determined in aliquots of 10–25 μl volumes. Bovine Serum Albumin is used as the standard in the protein determination according to the method described in Lowry et al., J. Biol. Chem., 193:265 (1951). The volume of the suspended cell membranes is adjusted to give a tissue protein concentration of 1.0 mg/ml of suspension. The prepared membrane suspension (10 times concentrated) is aliquoted in 1.0 ml volumes and stored at −70° C. until used in subsequent binding experiments.
The reaction is allowed to proceed in the dark for 120 min at room temperature, at which time, the bound ligand-receptor complex is filtered off on a 96 well unifilter with a Packard Filtermate® 196 Harvester. The bound complex caught on the filter disk is allowed to air dry and the radioactivity is measured in a Packard TopCount® equipped with six photomultiplier detectors, after the addition of 40.0 μl Microscint®−20 scintillant to each shallow well. The unifilter plate is heat-sealed and counted in a PackardTopCount® with a tritium efficiency of 31.0%.
Binding in the presence of varying concentrations of test compound is expressed as a percentage of specific binding in the absence of test compound. The results are plotted as log % bound versus log concentration of test compound. […] A linear regression line of data points is plotted, from which the IC50 value is determined and the Ki value is determined based upon the following equation: Ki=IC50/(1+L/KD) where L is the concentration of the radioactive ligand used and KD is the dissociation constant of the ligand for the receptor, both expressed in nM.
`NCCc1cn(S(=O)(=O)c2ccccc2)c2sccc12` [Example 8, 2-[6-(phenylsulfonyl)-6H-thieno[2,3-b]pyrrol-4-yl]ethylamine]: affinity was put at a Ki of 7.5 ± 0.9 nM.

Staying with this assay, now noted: membranes of Hela cells expressing human cloned 5-HT6 receptors; [3H]-LSD 3.0 nM; 120 min, room temperature; read-out: 5-HT6 Binding Ki.
Turning to “2-{[4-(2-chlorophenyl)sulfonyl]-4H-thieno[3,2-b]pyrrol-6-yl}ethylamine [Example 69]”, the Ki was found to be 2.7 ± 0.2 nM.

For “2-{[4-(3-chlorophenyl)sulfonyl]-4H-thieno[3,2-b]pyrrol-6-yl}ethylamine [Example 65]”, the Ki turned out to be 2.7 ± 0.1 nM.

In the case of “2-{[6-(2,6-dichloroimidazo[2,1-b][1,3]thiazol-5-yl)sulfonyl]-6H-thieno[2,3-b]pyrrol-4-yl}-ethylamine [Example 21]”, the Ki amounted to 21.3 ± 1.5 nM.

As to “2-{[6-(2-chloroimidazo[1,2-a]pyrid-3-yl)sulfonyl]-6H-thieno[2,3-b]pyrrol-4-yl}-ethylamine [Example 20]”, the Ki was 11.3 ± 0.3 nM.

As for “2-{[6-(2-chlorophenyl)sulfonyl]-6H-thieno[2,3-b]pyrrol-4-yl}ethylamine [Example 18]”, the Ki was 13 ± 1.5 nM.

In the case of “2-{[6-(3-Chlorophenyl)sulfonyl]-6H-thieno[2,3-b]pyrrol-4-yl}ethylamine [Example 10]”, the Ki came to 4.3 ± 0.5 nM.

As for “2-{[6-(3-chloro-2-methylphenyl)sulfonyl]-6H-thieno[2,3-b]pyrrol-4-yl}ethylamine [Example 34]”, the Ki is 13.3 ± 1.5 nM.

Take “2-{[6-(4-chlorophenyl)sulfonyl]-6H-thieno[2,3-b]pyrrol-4-yl}ethylamine [Example 22]”: the Ki came to 13.3 ± 0.7 nM.

With “2-{[6-(5-Chlorothien-2-yl)sulfonyl]-6H-thieno[2,3-b]pyrrol-4-yl}ethylamine [Example 11]”, the Ki came to 4.9 ± 0.8 nM.

Take “2-{[6-(6-Chloroimidazo[2,1-b][1,3]thiazol-5-yl)sulfonyl]-6H-thieno[2,3-b]pyrrol-4-yl}-ethylamine [Example 12]”: the Ki is 2.1 ± 0.1 nM.

For `NCCc1cn(S(=O)(=O)c2cccc(C(F)(F)F)c2)c2sccc12` [Example 9, 2-{[6-(3-trifluoromethyl)phenylsulfonyl]-6H-thieno[2,3-b]pyrrol-4-yl}ethylamine], the inhibition constant Ki is 8.9 ± 0.7 nM.

As for `NCCc1cn(S(=O)(=O)c2ccc3ccccc3c2)c2sccc12` [Example 13, 2-[6-(2-naphthylsulfonyl)-6H-thieno[2,3-b]pyrrol-4-yl]ethylamine], the Ki worked out at 16.7 ± 2.4 nM.

As to `COc1cccc(S(=O)(=O)n2cc(CCN)c3ccsc32)c1` [Example 14, 2-{[6-(3-methoxyphenyl)sulfonyl]-6H-thieno[2,3-b]pyrrol-4-yl}ethylamine], the Ki was 2.3 ± 0.1 nM.

Turning to `Cc1c(S(=O)(=O)n2cc(CCN)c3ccsc32)sc2ccc(Cl)cc12` [Example 15, 2-{[6-(5-chloro-3-methylbenzo[b]thien-2-yl)sulfonyl]-6H-thieno[2,3-b]pyrrol-4-yl}-ethylamine], the Ki came out at 102 ± 5.7 nM.

For `NCCc1cn(S(=O)(=O)c2ccccc2F)c2sccc12` [Example 16, 2-{[6-(2-fluorophenyl)sulfonyl]-6H-thieno[2,3-b]pyrrol-4-yl}ethylamine], the Ki was 12 ± 1.2 nM.

As for `NCCc1cn(S(=O)(=O)c2cccc(F)c2)c2sccc12` [Example 17, 2-{[6-(3-fluorophenyl)sulfonyl]-6H-thieno[2,3-b]pyrrol-4-yl}ethylamine], the Ki was 9.3 ± 0.7 nM.

On to `NCCc1cn(S(=O)(=O)c2cnc3sccn23)c2sccc12` [Example 19, 2-{[6-(imidazo[2,1-b][1,3]thiazol-5-yl)sulfonyl]-6H-thieno[2,3-b]pyrrol-4}ethylamine], for which the Ki stood at 3.4 ± 0.6 nM.

Regarding `NCCc1cn(S(=O)(=O)c2cccc(Cl)c2Cl)c2sccc12` [Example 23, 2-{[6-(2,3-dichlorophenyl)sulfonyl)-6H-thieno[2,3-b]pyrrol-4-yl}ethylamine], the Ki was determined as 7.1 ± 0.2 nM.

Turning to `NCCc1cn(S(=O)(=O)c2cccc(Br)c2)c2sccc12` [Example 24, 2-{[6-(3-bromophenyl)sulfonyl]-6H-thieno[2,3-b]pyrrol-4-yl}ethylamine], the Ki worked out at 9 ± 0.5 nM.

On to `NCCc1cn(S(=O)(=O)c2ccc(Br)s2)c2sccc12` [Example 25, 2-{[6-(5-bromothien-2-yl)sulfonyl]-6H-thieno[2,3-b]pyrrol-4-yl}ethylamine], for which the Ki stood at 17.7 ± 3.2 nM.

Consider `NCCc1cn(S(=O)(=O)c2cccs2)c2sccc12` [Example 26], for which the Ki was 20 ± 2 nM.

Take `NCCc1cn(S(=O)(=O)c2cc(Cl)c(Cl)s2)c2sccc12` [Example 27, 2-{[6-(4,5-dichlorothien-2-yl)sulfonyl]-6H-thieno[2,3-b]pyrrol-4-yl}ethylamine]: the Ki was determined as 32.7 ± 4.1 nM.

Turning to `NCCc1cn(S(=O)(=O)c2cccc3ccccc23)c2sccc12` [Example 28, 2-[6-(1-naphthylsulfonyl)-6H-thieno[2,3-b]pyrrol-4-yl]ethylamine], the Ki is 9.2 ± 0.8 nM.

Take `Cc1cccc(S(=O)(=O)n2cc(CCN)c3ccsc32)c1` [Example 29, 2-{[6-(3-methylphenyl)sulfonyl]-6H-thieno[2,3-b]pyrrol-4-yl}ethylamine]: the Ki was 7.8 ± 0.4 nM.

Consider `Cc1nc(S(=O)(=O)n2cc(CCN)c3ccsc32)cn1C` [Example 30, 2-{[6-(1,2-dimethyl-1H-imidazol-4-yl)sulfonyl]-6H-thieno[2,3-b]pyrrol-4-yl}ethylamine], for which the Ki was 134 ± 10.3 nM.

As to `NCCc1cn(S(=O)(=O)c2cccc3cccnc23)c2sccc12` [Example 31, 2-{[6-(quinolin-8-yl)sulfonyl]-6H-thieno[2,3-b]pyrrol-4-yl}-ethylamine], the Ki was determined as 8.6 ± 0.8 nM.

With `NCCc1cn(S(=O)(=O)c2ccccc2C(F)(F)F)c2sccc12` [Example 32, 2-{{[6-(2-trifluoromethyl)phenyl]sulfonyl}-6H-thieno[2,3-b]pyrrol-4-yl}ethylamine], the Ki was 21 ± 2.7 nM.

With `COc1ccc(S(=O)(=O)n2cc(CCN)c3ccsc32)cc1` [Example 33, 2-{[6-(4-methoxyphenyl)sulfonyl]-6H-thieno[2,3-b]pyrrol-4-yl}ethylamine], the Ki worked out at 24.7 ± 1.7 nM.

As for `NCCc1cn(S(=O)(=O)c2ccc(N)cc2)c2sccc12` [Example 35, 2-{[6-(4-aminophenyl)sulfonyl]-6H-thieno[2,3-b]pyrrol-4-yl}ethylamine], the Ki came out at 2.4 ± 0.3 nM.

With `CN(C)CCc1cn(S(=O)(=O)c2ccccc2)c2sccc12` [Example 38, N,N-Dimethyl-2-[6-(phenylsulfonyl)-6H-thieno[2,3-b]pyrrol-4-yl]ethylamine], the Ki worked out at 1.2 ± 0.1 nM.

On to `CN(C)CCc1cn(S(=O)(=O)c2cccc(C(F)(F)F)c2)c2sccc12` [Example 39, N,N-dimethyl-2-{{[6-(3-trifluoromethyl)phenyl]sulfonyl}-6H-thieno[2,3-b]pyrrol-4-yl}-ethylamine], for which the Ki stood at 2.3 ± 0.5 nM.

As for `COc1cccc(S(=O)(=O)n2cc(CCN(C)C)c3ccsc32)c1` [Example 44], the Ki stood at 0.8 ± 0.1 nM.

Take `Cc1c(S(=O)(=O)n2cc(CCN(C)C)c3ccsc32)sc2ccc(Cl)cc12` [Example 45, N,N-dimethyl-2-{[6-(5-chloro-3-methylbenzo[b]thien-2-yl)sulfonyl]-6H-thieno[2,3-b]pyrrol-4-yl}ethylamine]: the Ki is 20.3 ± 3.4 nM.

With `CN(C)CCc1cn(S(=O)(=O)c2ccccc2F)c2sccc12` [Example 46, N,N-dimethyl-2-{[6-(2-fluorophenyl)sulfonyl]-6H-thieno[2,3-b]pyrrol-4-yl}ethylamine], the Ki amounted to 1.8 ± 0.1 nM.
